We go through three compounds from paper PMC6397651 (Journal of pharmaceutical and biomedical analysis, 2018).

Where “and” joins values, the source holds several entries; their conditions need not be identical. Equal values may be shown once.

The nature of series [1]: In-vivo pharmacokinetic study in rats: passive cannabis smoke inhalation. Particulars: for CL/F (apparent clearance): Rimonabant 3 mg/kg i.p.
The nature of series [2]: Stability of analytes in rat plasma. It counts as in vitro ADME. To be noted: for Autosampler stability, % Accuracy / Short-term Stability, % Accuracy: 20°C, 24 hr; for Short-term Stability, % Accuracy / Mean short term stability / Long-term Stability, % Accuracy / Freeze-Thaw Stability, % Accuracy / Mean freeze-thaw stability / Mean long term stability: rat plasma; for Mean short term stability / Auto sampler stability / Mean freeze-thaw stability / Mean long term stability: range over LQC and HQC; for Long-term Stability, % Accuracy / Freeze-Thaw Stability, % Accuracy: −70 ± 10°C; for Long-term Stability, % Accuracy: 30 days; for Freeze-Thaw Stability, % Accuracy: three cycles.

[3] abbreviates: THC, inhalation, 50 min smoke exposure, Wistar rats.
The mark [4] stands for this setting: male, Wistar, rat, plasma, inhaled or intranasal, 0.05 mg/kg.
Setting [5] is: male, Wistar, rat, plasma, ip, 3 mg/kg.

For `CCCCCc1cc(O)c2c(c1)OC(C)(C)[C@@H]1CCC(C)=C[C@@H]21` [THC, delta-9-tetrahydrocannabinol], in series [1] (setting [3]), the “CL (clearance)” value amounted to 1.1 ± 0.26 L/h and the “Vss (volume of distribution at steady state)” value stood at 3.9 ± 2.07 L. Also, in series [1] (setting [4]), the AUC(0-inf) amounted to 13.9 ± 3.8 ng·h/mL, the AUC(0-t) is 12.2 ± 3 ng·h/mL and the half-life is 3.7 ± 1.3 h. Also, in series [1] (male, Wistar, rat, plasma, inhaled, 0.05 mg/kg), the AUC(0-inf) was determined as 13.9 ng·h/mL. In addition, in series [2] (HQC 80 ng/mL), the “Autosampler stability, % Accuracy” value came to 99.97%; the “Short-term Stability, % Accuracy” value is 104.40%; the “Long-term Stability, % Accuracy” value was 97.20%; the “Freeze-Thaw Stability, % Accuracy” value came out at 109.20%. Further, in series [2] (LQC 0.3 ng/mL), the “Autosampler stability, % Accuracy” value was 105.30%; the “Short-term Stability, % Accuracy” value was 103.20%; the “Long-term Stability, % Accuracy” value was 108.30%; the “Freeze-Thaw Stability, % Accuracy” value is listed as 112.80%. Besides, the “Mean short term stability” value in series [2] was 103.20–104.40%.
Take `Cc1c(C(=O)NN2CCCCC2)nn(-c2ccc(Cl)cc2Cl)c1-c1ccc(Cl)cc1` [Rimonabant, rimonabant]: the “CL/F (apparent clearance)” value in series [1] (Wistar rats) is 2.0 L/h and 2.0 ± 0.3 L/h. The “CL/F (apparent clearance)” value in series [1] (Wistar rats, listed as rimonabant) turned out to be 2 L/h. Further, in series [1] (setting [5]), the AUC(0-inf) turned out to be 458 ng·h/mL, the AUC(0-t) came to 308 ± 55 ng·h/mL, the peak level (Cmax) was 88.6 ± 5.64 ng/mL and the time of peak concentration (Tmax) stood at 0.2 ± 0.07 h. Besides, the half-life in series [1] (setting [5]) was 5.4 ± 0.85 h. In addition, in series [2] (HQC 80 ng/mL), the “Autosampler stability, % Accuracy” value amounted to 102.30%; the “Short-term Stability, % Accuracy” value is given as 104.30%; the “Long-term Stability, % Accuracy” value is reported as 99.40%; the “Freeze-Thaw Stability, % Accuracy” value turned out to be 109.50%. Moreover, in series [2] (LQC 0.3 ng/mL), the “Autosampler stability, % Accuracy” value was determined as 104.50%; the “Short-term Stability, % Accuracy” value was determined as 95.70%; the “Long-term Stability, % Accuracy” value is on record as 96.90%; the “Freeze-Thaw Stability, % Accuracy” value is 106.25%. In series [2], the Auto sampler stability is recorded as 102.30–104.50%, the Mean freeze-thaw stability is reported as 106.25–109.50%, the “Mean long term stability” value is listed as 96.90–99.40% and the “Mean short term stability” value is 95.70–104.30%.
For `C=C(C)[C@@H]1CCC(C)=C[C@H]1c1c(O)cc(CCCCC)cc1O` [CBD, cannabidiol], in series [2] (HQC 80 ng/mL), the “Autosampler stability, % Accuracy” value is recorded as 96.80%; the “Short-term Stability, % Accuracy” value amounted to 99.60%; the “Long-term Stability, % Accuracy” value was found to be 103.30%; the “Freeze-Thaw Stability, % Accuracy” value was found to be 105.21%. For the same compound, in series [2] (LQC 0.3 ng/mL), the “Autosampler stability, % Accuracy” value came to 103.60%; the “Short-term Stability, % Accuracy” value is listed as 97.50%; the “Long-term Stability, % Accuracy” value was found to be 106.50%; the “Freeze-Thaw Stability, % Accuracy” value was 108.50%. Besides, in series [2], the Auto sampler stability is reported as 96.80–103.60%, the Mean freeze-thaw stability is recorded as 105.21–108.50%, the “Mean long term stability” value is listed as 103.30–106.50% and the “Mean short term stability” value is given as 97.50–99.60%.
